Assay type in all cases: cell-based
Assay [1] has as its target T1, 17-beta-hydroxysteroid dehydrogenase type 1 (Homo sapiens) (UniProt P14061).
T1 sequence (whole entry): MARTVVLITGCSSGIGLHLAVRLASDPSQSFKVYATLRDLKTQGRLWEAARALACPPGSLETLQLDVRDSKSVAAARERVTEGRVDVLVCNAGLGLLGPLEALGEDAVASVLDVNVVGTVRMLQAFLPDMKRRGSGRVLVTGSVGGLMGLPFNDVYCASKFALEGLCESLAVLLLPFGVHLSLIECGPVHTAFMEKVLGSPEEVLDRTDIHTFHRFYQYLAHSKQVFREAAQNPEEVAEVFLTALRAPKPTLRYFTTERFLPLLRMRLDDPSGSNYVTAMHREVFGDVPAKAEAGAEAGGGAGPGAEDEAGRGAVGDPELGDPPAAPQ
In words: Inhibitory activity against 17 beta hydroxysteroid dehydrogenase type 1 at 10 uM in T47D cells.

The target of assay [2] is T2, 17-beta-hydroxysteroid dehydrogenase type 1 (Homo sapiens, UniProt P14061).
T2 sequence (P14061 whole entry): T1 sequence (whole entry)
In words: Inhibitory activity against 17 beta hydroxysteroid dehydrogenase type 1 in T47D cells.

The target of assay [3] is T3, 17-beta-hydroxysteroid dehydrogenase type 2 (Homo sapiens) (UniProt P37059).
T3 sequence (whole entry): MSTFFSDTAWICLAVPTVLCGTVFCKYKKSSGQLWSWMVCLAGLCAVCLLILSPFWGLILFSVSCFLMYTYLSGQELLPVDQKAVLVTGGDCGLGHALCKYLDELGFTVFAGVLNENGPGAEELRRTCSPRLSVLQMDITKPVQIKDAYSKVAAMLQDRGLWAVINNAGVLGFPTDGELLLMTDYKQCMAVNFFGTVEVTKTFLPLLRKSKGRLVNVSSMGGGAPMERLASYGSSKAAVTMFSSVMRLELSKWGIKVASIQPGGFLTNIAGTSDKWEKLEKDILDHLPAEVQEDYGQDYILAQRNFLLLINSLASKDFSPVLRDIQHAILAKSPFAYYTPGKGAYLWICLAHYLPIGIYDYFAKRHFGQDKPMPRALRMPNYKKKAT
Nature of the assay: Inhibitory activity against 17 beta hydroxysteroid dehydrogenase type 2 at 10 uM in MDA-MB-231 cells.

Structures are written as SMILES.

As to `COc1cc2c(cc1O)CCC1[C@@H]2CC[C@]2(C)C(=O)C(CC(=O)NCc3cccnc3)C[C@@H]12` (single isomer, unassigned), the inhibition stood at 96% in assay [1] and 0% in assay [3]. In assay [2], this compound displayed a 50% inhibitory concentration (IC50) of 290 nM.
The corresponding values for `C[C@]12CC[C@@H]3c4ccc(O)cc4CCC3[C@@H]1CC(CC(=O)NCc1cccnc1)C2=O` (single isomer, unassigned) are 97%, 26% and 37 nM.
In the case of `CCc1cc2c(cc1O)CCC1[C@@H]2CC[C@]2(C)C(=O)C(CC(=O)NCc3cccnc3)C[C@@H]12` (single isomer, unassigned), the inhibition in assay [1] was 99%; in assay [3], -5%. In assay [2], this compound came in with an IC50 of 27 nM.

Broadly, the inhibition is the change of the read-out against control, counted positive when it falls. In general, IC50 refers to the midpoint of a concentration-inhibition curve. Low readings indicate higher potency, high ones lower potency.

The record behind these values is ChEMBL document CHEMBL1143588, “Novel and potent 17beta-hydroxysteroid dehydrogenase type 1 inhibitors” (J Med Chem, 2005).
